{
  "source": "patent US7468384B2",
  "about": "“Microbicidal composition” (Rohm and Haas Company, priority 2004, dated 2008)",
  "tested_on": "S. aureus 6538",
  "test": "Synergy test, microtiter plate high resolution MIC assay, bacterium",
  "assay_type": "cell-based",
  "details": "for SI (calculated synergy index): S. aureus 6538, TSB",
  "excerpt": "One measure of synergism is the industrially accepted method described by Kull, F. C.; Eisman, P. C.; Sylwestrowicz, H. D. and Mayer, R. L., in Applied Microbiology 9:538-541 (1961), using the ratio determined by the formula: Qa/QA+Qb/QB=Synergy Index (“SI”) wherein: • QA=concentration of compound A (first component) in ppm, acting alone, which produced an end point (MIC of Compound A). • Qa=concentration of compound A in ppm, in the mixture, which produced an end point. • QB=concentration of compound B (second component) in ppm, acting alone, which produced an end point (MIC of Compound B). • Qb=concentration of compound B in ppm, in the mixture, which produced an end point.\nWhen the sum of Qa/QA and Qb/QB is greater than one, antagonism is indicated. […] The lower the SI, the greater the synergy shown by that particular mixture. The minimum inhibitory concentration (MIC) of a microbicide is the lowest concentration tested under a specific set of conditions that prevents the growth of added microorganisms.\nSynergy tests were conducted using standard microtiter plate assays with media designed for optimal growth of the test microorganism. Soybean Casein Digest Broth (Tryptic Soy Broth, TSB medium) or minimal salt medium supplemented with 0.2% glucose and 0.1% yeast extract (M9GY medium) was used for testing bacteria; Potato Dextrose Broth (PDB medium) was used for testing yeast and mold. In this method, a wide range of combinations of microbicides was tested by conducting high resolution MIC assays in the presence of various concentrations of MI. High resolution MICs were determined by adding varying amounts of microbicide to one column of a microtitre plate and doing subsequent ten-fold dilutions using an automated liquid handling system to obtain a series of endpoints ranging from 2 ppm to 10,000 ppm active ingredient.",
  "note": "Like-named read-outs stand apart in the source and are kept apart here.",
  "data": [
    {"molecule": "Cn1sccc1=O", "note": "[2-methyl-3-isothiazolone, 2-methyl-4-isothiazolin-3-one]", "values": [
      {"measurement": "MIC", "setting": "Staphylococcus aureus, 6538, 24 h, read-out: Qa: end-point activity (MIC) of MI in the mixture (MI alone, QA, where Qb = 0)", "result": 200, "unit": "µg/mL"},
      {"measurement": "MIC", "setting": "Staphylococcus aureus, 6538, 48 h, read-out: MIC of component acting alone (QA / QB)", "result": 300, "unit": "µg/mL"},
      {"measurement": "MIC", "setting": "Staphylococcus aureus, 6538, 48 h, read-out: Qa: end-point activity (MIC) of MI in the mixture (MI alone, QA, where Qb = 0)", "result": 300, "unit": "µg/mL"},
      {"measurement": "MIC", "setting": "Staphylococcus aureus, 6538, 72 h, read-out: MIC of component acting alone (QA / QB)", "result": 300, "unit": "µg/mL"},
      {"measurement": "SI (calculated synergy index)", "setting": "Table 5, 48 hours", "result": 1.00},
      {"measurement": "SI (calculated synergy index)", "setting": "Table 6, 24 hours", "result": 1.00}
    ]}
  ]
}
